Experimental findings from patent US8747912B2, “Drug delivery system” (Isis Innovation Limited, priority 2000, dated 2014) are described below.

A short description of this data set: Release of the drugs from their intercalation compounds in phosphate buffer solution at 37° C. The class given is physicochemical. The following applies: stirred at 1000 rpm, intercalate in [LiAl2(OH)6]Cl.H2O, UV of filtrate. How it is done: Release of the drugs from their intercalation compounds was performed in each case by the addition of 0.0250 g-0.100 g of the intercalation compound to 250 mL phosphate buffer solution at 37° C. […] The release in phosphate buffer at pH 7 and at pH 4 was investigated. Aliquots were removed from the flask at regular time intervals, the solution was filtered and the UV spectrum of the filtrate recorded in a […] quartz cuvette. A baseline scan using the neat solution was recorded prior to the collection of the first spectrum of the filtrate.

Each structure is given as a SMILES string.

In the case of `O=C(O)Cc1ccc(-c2ccccc2)cc1` [4-biphenylacetic acid], the “release of the drug from its intercalation compound” value (“release of the drug” below) was “rapid” (phosphate buffer pH 4, 37° C.); “slower and more controlled” (phosphate buffer pH 7, 37° C.).
For the compound `O=C([O-])Cc1ccccc1Nc1c(Cl)cccc1Cl.[Na+]` [Diclofenac, sodium (2-(2,6-dichloroanilino)phenyl)acetate], the “release of the drug” value was “rapid” (phosphate buffer pH 4, 37° C.); “slower and more controlled” (phosphate buffer pH 7, 37° C.).
On to `COc1ccc2cc([C@H](C)C(=O)O)ccc2c1` [Naproxen, (+)-2-(6-methoxy-2-naphthyl)propionic acid], for which the “release of the drug” value (phosphate buffer pH 4, 37° C.) is given as “rapid”; the “release of the drug” value (phosphate buffer pH 7, 37° C.) is “slower and more controlled”.
